According to patent US20090175911A1, “Bacterial Production of Carotenoids” (ROYAL HOLLOWAY AND BEDFORD NEW COLLEGE, priority 2005, published 2009):
In brackets after ≈: the same amount, converted by molar mass. Read-outs that look alike come from different tables or passages of the source.

Key:
PY79 [1] = assay: MIC determination; assay type: cell-based; conditions: Bacillus subtilis
HU36 [2] = assay: MIC determination; assay type: cell-based; conditions: Bacillus
HU36 [3] = assay: Disc diffusion antibiogram; assay type: cell-based, Bacillus
PY79 [4] = assay: Disc diffusion antibiogram; conditions: 6 mm discs, amount per disc in brackets after each antibiotic, 18 h at 37° C., three experiments
Natto = assay: Disc diffusion antibiogram; conditions: 6 mm discs, amount per disc in brackets after each antibiotic, 18 h at 37° C., three experiments
[5] = Gastric stability of carotenoids in simulated gastric fluid (SGF); assay type: in vitro ADME; conditions: SGF (1 mg/ml pepsin, 0.9% NaCl, pH 2), 37° C., by 20 minutes, versus 0 minutes
[6] = strains with MICs equal or higher are considered resistant, cited from earlier work

Row | Molecule | MIC (PY79 [1]) [µg/mL] | MIC (HU36 [2]) [µg/mL] | Zone of inhibition (mm) (PY79 [4]) | Zone of inhibition (mm) (Natto) | other results
1 | CC(C)(O/N=C(\C(=O)N[C@@H]1C(=O)N2C(C(=O)[O-])=C(C[n+]3ccccc3)CS[C@H]12)c1csc(N)n1)C(=O)O [Ceftazidime] | 0.025 (≈ 0.0457 µM) | 0.05 (≈ 0.0915 µM) |  |  | 
2 | O=C(O)c1cn(C2CC2)c2cc(N3CCNCC3)c(F)cc2c1=O [Ciporfloxacin] |  |  | 32.8 ± 1 | 33.3 ± 1.5 | Zone of inhibition (mm) (HU36 [3]): 29.7 ± 0.6 mm
3 | CCC[C@@H]1C[C@@H](C(=O)N[C@@H]([C@H]2O[C@H](SC)[C@H](O)[C@@H](O)[C@H]2O)[C@H](C)Cl)N(C)C1 [Clindamycin] | 0.05 (≈ 0.118 µM) | 8 (≈ 18.8 µM) |  |  | 
4 | CCn1cc(C(=O)O)c(=O)c2ccc(C)nc21 [Naladixic acid] |  |  | 20.7 ± 1.2 | 23 ± 1.7 | Zone of inhibition (mm) (HU36 [3]; HU36, 6 mm discs, amount per disc in brackets after each antibiotic, 18 h at 37° C., three experiments): 22.8 ± 1.4 mm
5 | CC1=C(/C=C/C(C)=C/C=C/C(C)=C/C=C/C=C(C)/C=C/C=C(C)/C=C/C2=C(C)CCCC2(C)C)C(C)(C)CCC1 [carotenoid standard, beta-carotene] |  |  |  |  | carotenoid remaining [5]: less than 1%
6 | Gentamycin |  |  |  |  | Breakpoints EFSA ([6]; (EFSA, 2005)): 4 mg/L; Breakpoints SCAN ([6]; (SCAN, 2002)): 8 mg/L
